In US20260356856A1, “KRAS G12S AND G12C INHIBITORS” (MIRATI THERAPEUTICS, INC., priority 2023, published 2026):

Legend:
[1] = biological target: T1, KRas-mediated phosphorylation of ERK in H358 cells (Homo sapiens, UniProt P01116, G12C); assay: Inhibition of KRas-mediated phosphorylation of ERK (HTRF), H358 cells; type: cell-based; conditions: HTRF pERK, 3 h incubation
T1 construct: pERK HTRF read-out

KRas G12C = biological target: T2, KRas G12C (Homo sapiens, UniProt P01116, G12C); assay: KRas binding assay, TR-FRET displacement of Cy5 labelled tracer; conditions: 60-minute incubation at room temperature, 1% DMSO, pH 7.5
T2 construct: Biotinylated KRas (corresponding to amino acids 1-169, produced at Accelegan Inc.); biotin (biotinylated); purchased Accelegan Inc
T2 sequence (P01116 1-169 isoform P01116-2 G12C): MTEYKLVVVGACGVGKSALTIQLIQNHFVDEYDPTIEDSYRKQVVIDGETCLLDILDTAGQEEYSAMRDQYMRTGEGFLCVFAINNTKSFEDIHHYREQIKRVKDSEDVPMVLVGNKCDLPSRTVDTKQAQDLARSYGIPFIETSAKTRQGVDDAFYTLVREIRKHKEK
In short: (§1)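 Truncated KRas (1-169), biotinylated, Tb-streptavidin donor; one-hour room-temperature incubation; IC50 by four-parameter curve fitting.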

KRas G12S = biological target: T3, KRas G12S (Homo sapiens, UniProt P01116, G12S); assay: as above; conditions: 60-minute incubation at room temperature, 1% DMSO, pH 7.5
T3 construct: Biotinylated KRas (corresponding to amino acids 1-169, produced at Accelegan Inc.); biotin (biotinylated); purchased Accelegan Inc
T3 sequence (P01116 1-169 isoform P01116-2 G12S): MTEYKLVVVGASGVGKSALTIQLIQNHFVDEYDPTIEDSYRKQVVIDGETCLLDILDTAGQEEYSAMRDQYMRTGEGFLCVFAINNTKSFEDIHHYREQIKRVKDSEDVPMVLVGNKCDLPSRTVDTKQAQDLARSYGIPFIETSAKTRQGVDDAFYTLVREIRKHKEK
In short: as §1

KRas WT = biological target: T4, KRas WT (Homo sapiens, UniProt P01116); assay: as above; conditions: 60-minute incubation at room temperature, 1% DMSO, pH 7.5
T4 construct: Biotinylated KRas (corresponding to amino acids 1-169, produced at Accelegan Inc.); biotin (biotinylated); purchased Accelegan Inc
T4 sequence (P01116 1-169 isoform P01116-2): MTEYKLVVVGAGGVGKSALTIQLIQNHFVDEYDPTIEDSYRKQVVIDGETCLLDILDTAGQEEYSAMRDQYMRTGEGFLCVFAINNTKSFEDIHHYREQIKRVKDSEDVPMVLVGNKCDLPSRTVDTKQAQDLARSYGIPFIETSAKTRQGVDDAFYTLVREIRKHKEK
In short: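 TR-FRET tracer-displacement readout after 60 min at room temperature, using KRas residues 1-169 (biotinylated) with terbium streptavidin and a Cy5 tracer. Buffer: 50 mM HEPES pH 7.5, 5 mM MgCl2, 0.005% Tween-20, 1 mM DTT, 1% DMSO final. IC50 from 4-parameter fit of POC data.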

[2] = biological target: T5, KRas-mediated phosphorylation of ERK in A549 cells (Homo sapiens, UniProt P01116, G12S); assay: Inhibition of KRas-mediated phosphorylation of ERK (HTRF), A549 cells; type: cell-based; conditions: HTRF pERK, 3 h incubation
T5 construct: pERK HTRF read-out
T5 sequence (P01116 1-188 isoform P01116-2 G12S): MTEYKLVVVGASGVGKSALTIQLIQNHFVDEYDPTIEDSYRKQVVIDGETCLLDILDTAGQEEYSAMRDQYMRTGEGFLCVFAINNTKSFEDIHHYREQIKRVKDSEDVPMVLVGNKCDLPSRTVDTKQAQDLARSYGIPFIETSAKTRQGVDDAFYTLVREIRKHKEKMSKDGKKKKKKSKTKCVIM

[3] = biological target: T6, KRas-mediated phosphorylation of ERK in MKN1 cells (Homo sapiens, UniProt P01116); assay: Inhibition of KRas-mediated phosphorylation of ERK (HTRF), MKN1 cells; type: cell-based; conditions: MKN1 cells (KRas WT); HTRF pERK; 3 h incubation
T6 construct: pERK HTRF read-out
T6 sequence (P01116 1-188 isoform P01116-2): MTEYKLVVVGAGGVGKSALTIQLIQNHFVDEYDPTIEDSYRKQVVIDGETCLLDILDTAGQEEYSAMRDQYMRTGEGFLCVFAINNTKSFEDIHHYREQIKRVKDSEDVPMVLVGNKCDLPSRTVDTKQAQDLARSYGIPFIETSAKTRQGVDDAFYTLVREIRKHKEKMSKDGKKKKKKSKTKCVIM
Procedure: Inhibition of KRas Phosphorylation of ERK (HTRF) by Exemplary Compounds of Formula (Ia) or (Ib)
Cisbio HTRF Advanced pERK Assay Catalog #64AERPEH • Cells: MKN1, PSN1 • Procedure: • 1. Day 1: Seed 6,000 cells/well −25 μl/well in 384-well white solid bottom plate; RPM1_10% FBS. Incubate overnight at 37 °C/5% CO2. • 2.

T1 sequence (P01116 1-188 isoform P01116-2 G12C): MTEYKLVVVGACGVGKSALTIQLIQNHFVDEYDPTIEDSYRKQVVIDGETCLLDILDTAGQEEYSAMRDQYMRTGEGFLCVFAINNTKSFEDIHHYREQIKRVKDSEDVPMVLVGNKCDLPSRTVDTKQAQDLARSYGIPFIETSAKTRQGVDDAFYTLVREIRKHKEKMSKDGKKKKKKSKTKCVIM

Row | SMILES | IC50 [1] | IC50 (KRas G12C) | IC50 (KRas G12S) | IC50 (KRas WT) | IC50 [2] | IC50 [3]
1 | N#Cc1c(N)sc2c(F)ccc(-c3c(Cl)cc4c(N5CCCC(C(=O)n6cccn6)CC5)nc(OC[C@@]56CCCN5C[C@H](F)C6)nc4c3F)c12 (stereo partly drawn) [Example 131, 4-(4-(4-(1H-pyrazole-1-carbonyl)azepan-1-yl)-6-chloro-8-fluoro-2-(((2R,7aS)-2-fluorotetrahydro-1H-pyrrolizin-7a(5H)-yl)methoxy)quinazolin-7-yl)-2-amino-7-fluorobenzo[b]thiophene-3-carbonitrile] | 9 nM | 7 nM | 6 nM | 7 nM | 5 nM | 258 nM
2 | Cc1ccn(C(=O)C2CCCN(c3nc(OC[C@@]45CCCN4C[C@H](F)C5)nc4c(F)c(-c5ccc(F)c6sc(N)c(C#N)c56)c(Cl)cc34)C2)n1 (stereo partly drawn) [Example 132, 2-amino-4-(6-chloro-8-fluoro-2-(((2R,7aS)-2-fluorotetrahydro-1H-pyrrolizin-7a(5H)-yl)methoxy)-4-(3-(3-methyl-1H-pyrazole-1-carbonyl)piperidin-1-yl)quinazolin-7-yl)-7-fluorobenzo[b]thiophene-3-carbonitrile] | 1200 nM | 19 nM | 17 nM | 25 nM | > 10000 nM | 404 nM
3 | Cc1ccn(C(=O)C2CCN(c3nc(OC[C@@]45CCCN4C[C@H](F)C5)nc4c(F)c(-c5ccc(F)c6sc(N)c(C#N)c56)c(Cl)cc34)CC2)n1 [Example 133, 2-amino-4-(6-chloro-8-fluoro-2-(((2R,7aS)-2-fluorotetrahydro-1H-pyrrolizin-7a(5H)-yl)methoxy)-4-(4-(3-methyl-1H-pyrazole-1-carbonyl)piperidin-1-yl)quinazolin-7-yl)-7-fluorobenzo[b]thiophene-3-carbonitrile] | 20 nM | 17 nM | 7 nM | 17 nM | 7 nM | 105 nM
4 | Cc1ccn(C(=O)CC2CN(c3nc(OC[C@@]45CCCN4C[C@H](F)C5)nc4c(F)c(-c5ccc(F)c6sc(N)c(C#N)c56)c(Cl)cc34)C2)n1 [Example 138, 2-amino-4-(6-chloro-8-fluoro-2-(((2R,7aS)-2-fluorotetrahydro-1H-pyrrolizin-7a(5H)-yl)methoxy)-4-(3-(2-(3-methyl-1H-pyrazol-1-yl)-2-oxoethyl)azetidin-1-yl)quinazolin-7-yl)-7-fluorobenzo[b]thiophene-3-carbonitrile] | 157 nM | 13 nM | 6 nM | 16 nM | 137 nM | 106 nM

More lines, in order of falling IC50 [1], values ahead:

Row | IC50 [1] | IC50 (KRas G12C) | IC50 (KRas G12S) | IC50 (KRas WT) | IC50 [2] | IC50 [3] | SMILES
5 | 412 nM | 5 nM | 5 nM | 16 nM | 46 nM | 1210 nM | Cc1ccn(C(=O)C2CCN(c3nc(OC[C@@]45CCCN4C[C@H](F)C5)nc4c(F)c(-c5ccc(F)c6sc(N)c(C#N)c56)c(Cl)cc34)C2)n1 (stereo partly drawn) [Example 139, 2-amino-4-(6-chloro-8-fluoro-2-(((2R,7aS)-2-fluorotetrahydro-1H-pyrrolizin-7a(5H)-yl)methoxy)-4-(3-(3-methyl-1H-pyrazole-1-carbonyl)pyrrolidin-1-yl)quinazolin-7-yl)-7-fluorobenzo[b]thiophene-3-carbonitrile]
6 | 22 nM | 11 nM | 3 nM | 15 nM | 8 nM | 178 nM | COc1ccn(C(=O)C2CCCN(c3nc(OC[C@@]45CCCN4C[C@H](F)C5)nc4c(F)c(-c5ccc(F)c6sc(N)c(C#N)c56)c(Cl)cc34)CC2)n1 (stereo partly drawn) [Example 140, 2-amino-4-(6-chloro-8-fluoro-2-(((2R,7aS)-2-fluorotetrahydro-1H-pyrrolizin-7a(5H)-yl)methoxy)-4-(4-(3-methoxy-1H-pyrazole-1-carbonyl)azepan-1-yl)quinazolin-7-yl)-7-fluorobenzo[b]thiophene-3-carbonitrile]
